Consider 36 compounds from patent US20090105283A1, “3-HYDROQUINAZOLIN-4-ONE DERIVATIVES FOR USE AS STEAROYL CoA DESATURASE INHIBITORS” (priority 2007, published 2009).

pIC50: −log10 of the molar value.

The target of this assay is T1, stearoyl-CoA desaturase (SCD) (Rattus norvegicus, UniProt P07308).
T1 construct: The microsomes were quickly thawed and added to assay buffer so that a concentration of 0.4 mg/ml was achieved; from tissue
T1 sequence (P07308 1-358): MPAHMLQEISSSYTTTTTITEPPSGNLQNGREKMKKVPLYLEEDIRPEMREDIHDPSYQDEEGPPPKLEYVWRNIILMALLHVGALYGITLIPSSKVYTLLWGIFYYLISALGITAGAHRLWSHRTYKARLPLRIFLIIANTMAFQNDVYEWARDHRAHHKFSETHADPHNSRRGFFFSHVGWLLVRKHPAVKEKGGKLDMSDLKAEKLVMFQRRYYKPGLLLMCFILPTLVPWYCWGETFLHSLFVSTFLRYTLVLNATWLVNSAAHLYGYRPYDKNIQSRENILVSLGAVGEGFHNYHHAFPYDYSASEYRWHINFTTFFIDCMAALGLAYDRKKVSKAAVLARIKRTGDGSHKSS
Put plainly: SCD assay with rat liver microsomes ([3H]stearoyl CoA, adapted from Talamo and Bloch). The following applies: Table 2 (Example 21, procedures of Example 20); rat liver microsomes, [3H]stearoyl CoA substrate. It counts as biochemical. A digest of the protocol:
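Liver microsomes came from diet-induced male Sprague Dawley rats and were used at 0.2 mg/ml final. Assay buffer was Tris pH 7.2 with NADH, ATP, CoA, MgCl2 and 0.1% BSA. Compounds were preincubated 30 min, then reacted 45 min at room temperature with [3H]stearoyl-CoA; after TCA stop and Bio-Bead cleanup, supernatant radioactivity was counted by scintillation.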
On the technique in general: Liver microsomes are a subcellular fraction often used to study metabolism.

In turn, `CC(=O)Nc1ccc2ncn(Cc3ccc(Cl)c(Cl)c3)c(=O)c2c1` [compound 17, N-(3-(3,4-dichlorobenzyl)-4-oxo-3,4-dihydroquinazolin-6-yl)acetamide] had a pIC50 of 5.41.

Take `CC(=O)Nc1ccc2ncn(Cc3ccc(F)c(F)c3)c(=O)c2c1` [compound 18, N-(3-(3,4-difluorobenzyl)-4-oxo-3,4-dihydroquinazolin-6-yl)acetamide]: the pIC50 was 4.59. Against the preceding compound, the pIC50 is 0.82 log units lower.

Take `CC(=O)Nc1ccc2ncn(Cc3ccc(C(F)(F)F)cc3)c(=O)c2c1` [compound 19, N-(4-oxo-3-(4-(trifluoromethyl)benzyl)-3,4-dihydroquinazolin-6-yl)acetamide]: the pIC50 is 4.55.

The compound `Cc1ccc(Cn2cnc3ccc(NC(=O)OCc4ccccc4)cc3c2=O)cc1C` [compound 20, benzyl 3-(3,4-dimethylbenzyl)-4-oxo-3,4-dihydroquinazolin-6-ylcarbamate] showed a pIC50 of 6.64.

As for `CC(=O)OCC(=O)Nc1ccc2ncn(Cc3ccc(C)c(C)c3)c(=O)c2c1` [compound 21, 2-(3-(3,4-dimethylbenzyl)-4-oxo-3,4-dihydroquinazolin-6-ylamino)-2-oxoethyl acetate], the pIC50 is 6.33. Compared with the last compound, the pIC50 is 0.31 log units lower.

Take `Cc1ccc(Cn2cnc3ccc(NC(=O)CO)cc3c2=O)cc1C` [compound 22, N-(3-(3,4-dimethylbenzyl)-4-oxo-3,4-dihydroquinazolin-6-yl)-2-hydroxyacetamide]: the pIC50 is 6.55.

Compound `CC(c1ccc(Cl)c(Cl)c1)n1cnc2ccc(NC(=O)CO)cc2c1=O` (stereo not drawn) [compound 23, N-(3-(1-(3,4-dichlorophenyl)ethyl)-4-oxo-3,4-dihydroquinazolin-6-yl)-2-hydroxyacetamide] had a pIC50 of 6.68. The pIC50 values of the last two compounds are within 0.2 log units of each other.

For the compound `CC(=O)OCC(=O)Nc1ccc2ncn(CCCc3ccccc3)c(=O)c2c1` [compound 24, 2-oxo-2-(4-oxo-3-(3-phenylpropyl)-3,4-dihydroquinazolin-6-ylamino)ethyl acetate], the pIC50 was 5.89.

`CCC(c1ccc(Cl)c(Cl)c1)n1cnc2ccc(NC(=O)COC(C)=O)cc2c1=O` (stereo not drawn) [compound 25, 2-(3-(1-(3,4-dichlorophenyl)propyl)-4-oxo-3,4-dihydroquinazolin-6-ylamino)-2-oxoethyl acetate] had a negative logarithm of the IC50 (pIC50) of 6.30.

As for `CCC(c1ccc(Cl)c(Cl)c1)n1cnc2ccc(NC(=O)CO)cc2c1=O` (stereo not drawn) [compound 26, N-(3-(1-(3,4-dichlorophenyl)propyl)-4-oxo-3,4-dihydroquinazolin-6-yl)-2-hydroxyacetamide], the negative-log IC50 (pIC50) was 5.48. Compared with the last compound, the pIC50 is 0.82 log units lower.

Consider `O=C(CO)Nc1ccc2ncn(CCCc3ccccc3)c(=O)c2c1` [compound 27, 2-hydroxy-N-(4-oxo-3-(3-phenylpropyl)-3,4-dihydroquinazolin-6-yl)acetamide], for which the pIC50 was 5.35.

For `CC(=O)OCC(=O)Nc1ccc2ncn(Cc3ccccc3C(F)(F)F)c(=O)c2c1` [compound 28, 2-oxo-2-(4-oxo-3-(2-(trifluoromethyl)benzyl)-3,4-dihydroquinazolin-6-ylamino)ethyl acetate], the pIC50 was 5.82.

With `O=C(CO)Nc1ccc2ncn(Cc3cccc(-c4ccccc4)c3)c(=O)c2c1` [compound 29, N-(3-(biphenyl-3-ylmethyl)-4-oxo-3,4-dihydroquinazolin-6-yl)-2-hydroxyacetamide], the pIC50 is 5.41. This pIC50 is 0.41 log units lower than that of the compound before.

`CCC(c1ccc(Cl)c(Cl)c1)n1cnc2ccc(NC(=O)OCc3ccccc3)cc2c1=O` (stereo not drawn) [compound 30, benzyl 3-(1-(3,4-dichlorophenyl)propyl)-4-oxo-3,4-dihydroquinazolin-6-ylcarbamate] gave a pIC50 of 5.85. This pIC50 is 0.44 log units higher than that of the compound before.

Compound `O=C(CO)Nc1ccc2ncn(Cc3ccc4ccccc4c3)c(=O)c2c1` [compound 31, 2-hydroxy-N-(3-(naphthalen-2-ylmethyl)-4-oxo-3,4-dihydroquinazolin-6-yl)acetamide] showed a pIC50 of 6.47. This pIC50 is 0.62 log units higher than that of the compound before.

Regarding `O=C(Nc1ccc2ncn(Cc3ccc4ccccc4c3)c(=O)c2c1)OCc1ccccc1` [compound 32, benzyl 3-(naphthalen-2-ylmethyl)-4-oxo-3,4-dihydroquinazolin-6-ylcarbamate], the negative logarithm of the IC50 (pIC50) is 6.14.

`O=C(CO)Nc1ccc2c(=O)n(Cc3ccc4ccccc4c3)cnc2c1` [compound 33, 2-hydroxy-N-(3-(naphthalen-2-ylmethyl)-4-oxo-3,4-dihydroquinazolin-7-yl)acetamide] showed a pIC50 of 5.55.

With `C[C@H](c1ccc(Cl)c(C(F)(F)F)c1)n1cnc2ccc(NC(=O)CO)cc2c1=O` [compound 34, (R)—N-(3-(1-(4-chloro-3-(trifluoromethyl)phenyl)ethyl)-4-oxo-3,4-dihydroquinazolin-6-yl)-2-hydroxyacetamide], the pIC50 was 6.32. This pIC50 is 0.77 log units higher than that of the compound before.

As for `C[C@@H](c1ccc(Cl)c(Cl)c1)n1cnc2cc(NC(=O)CO)ccc2c1=O` [compound 35, (S)—N-(3-(1-(3,4-dichlorophenyl)ethyl)-4-oxo-3,4-dihydroquinazolin-7-yl)-2-hydroxyacetamide], the pIC50 is 5.74.

On to `C[C@H](c1ccc(Cl)c(Cl)c1)n1cnc2cc(NC(=O)CO)ccc2c1=O` [compound 36, (R)—N-(3-(1-(3,4-dichlorophenyl)ethyl)-4-oxo-3,4-dihydroquinazolin-7-yl)-2-hydroxyacetamide], for which the pIC50 is 7.24.

Turning to `O=C(CO)Nc1ccc2ncn(CCc3ccc(Cl)cc3)c(=O)c2c1` [compound 37, N-(3-(4-chlorophenethyl)-4-oxo-3,4-dihydroquinazolin-6-yl)-2-hydroxyacetamide], the pIC50 was 7.70.

Regarding `O=C(CO)Nc1ccc2ncn(CCc3cccc(Cl)c3)c(=O)c2c1` [compound 38, N-(3-(3-chlorophenethyl)-4-oxo-3,4-dihydroquinazolin-6-yl)-2-hydroxyacetamide], the negative logarithm of the IC50 (pIC50) was 5.24.

Compound `O=C(CO)Nc1ccc2ncn(CCc3ccc(Cl)cc3Cl)c(=O)c2c1` [compound 39, N-(3-(2,4-dichlorophenethyl)-4-oxo-3,4-dihydroquinazolin-6-yl)-2-hydroxyacetamide] showed a pIC50 of 5.31. The pIC50 values of the last two compounds are within 0.2 log units of each other.

Take `O=C(Nc1ccc2ncn(Cc3cccc(C(F)(F)F)c3)c(=O)c2c1)OCc1ccccc1` [compound 40, benzyl 4-oxo-3-(3-(trifluoromethyl)benzyl)-3,4-dihydroquinazolin-6-ylcarbamate]: the pIC50 is 5.85.

In turn, `O=C(Nc1ccc2ncn(CCCOc3ccccc3C(F)(F)F)c(=O)c2c1)OCc1ccccc1` [compound 41, benzyl 4-oxo-3-(3-(2-(trifluoromethyl)phenoxy)propyl)-3,4-dihydroquinazolin-6-ylcarbamate] showed a pIC50 of 7.16. This pIC50 lies 1.31 log units higher than the previous one.

In the case of `O=C(CO)Nc1ccc2ncn(CCOc3cc(Cl)ccc3Cl)c(=O)c2c1` [compound 42, N-(3-(2-(2,5-dichlorophenoxy)ethyl)-4-oxo-3,4-dihydroquinazolin-6-yl)-2-hydroxyacetamide], the negative logarithm of the IC50 (pIC50) is 6.54. Against the preceding compound, the pIC50 is 0.62 log units lower.

Consider `O=C(CO)Nc1ccc2ncn(CCCOc3cc(Cl)ccc3Cl)c(=O)c2c1` [compound 43, N-(3-(3-(2,5-dichlorophenoxy)propyl)-4-oxo-3,4-dihydroquinazolin-6-yl)-2-hydroxyacetamide], for which the pIC50 is 7.26.

The compound `O=C(Nc1ccc2ncn(CCCOc3cc(Cl)ccc3Cl)c(=O)c2c1)OCc1ccccc1` [compound 44, benzyl 3-(3-(2,5-dichlorophenoxy)propyl)-4-oxo-3,4-dihydroquinazolin-6-ylcarbamate] showed a pIC50 of 7.26.

`O=C(CO)Nc1ccc2ncn(CCCOc3ccccc3C(F)(F)F)c(=O)c2c1` [compound 45, 2-hydroxy-N-(4-oxo-3-(3-(2-(trifluoromethyl)phenoxy)propyl)-3,4-dihydroquinazolin-6-yl)acetamide]: the pIC50 is 6.92.

`O=C(Nc1ccc2ncn(CCCOc3ccccc3F)c(=O)c2c1)OCc1ccccc1` [compound 46, benzyl 3-(3-(2-fluorophenoxy)propyl)-4-oxo-3,4-dihydroquinazolin-6-ylcarbamate] had a negative logarithm of the IC50 (pIC50) of 6.31.

As to `CC(=O)OCC(=O)Nc1ccc2ncn(CCCOc3ccccc3F)c(=O)c2c1` [compound 47, 2-(3-(3-(2-fluorophenoxy)propyl)-4-oxo-3,4-dihydroquinazolin-6-ylamino)-2-oxoethyl acetate], the pIC50 was 5.01.

Compound `O=C(CO)Nc1ccc2c(=O)n(CCCOc3ccccc3F)cnc2c1` [compound 48, N-(3-(3-(2-fluorophenoxy)propyl)-4-oxo-3,4-dihydroquinazolin-7-yl)-2-hydroxyacetamide] gave a pIC50 of 4.96. The pIC50 values of the last two compounds are within 0.2 log units of each other.

For the compound `N#Cc1ccccc1OCCCn1cnc2ccc(NC(=O)OCc3ccccc3)cc2c1=O` [compound 49, benzyl 3-(3-(2-cyanophenoxy)propyl)-4-oxo-3,4-dihydroquinazolin-6-ylcarbamate], the negative logarithm of the IC50 (pIC50) was 6.32.

In the case of `O=C(Nc1ccc2c(=O)n(CCCOc3cc(Cl)ccc3Cl)cnc2c1)OCc1ccccc1` [compound 50, benzyl 3-(3-(2,5-dichlorophenoxy)propyl)-4-oxo-3,4-dihydroquinazolin-7-ylcarbamate], the negative-log IC50 (pIC50) is 6.35.

With `O=C(CO)Nc1ccc2c(=O)n(CCCOc3cc(Cl)ccc3Cl)cnc2c1` [compound 51, N-(3-(3-(2,5-dichlorophenoxy)propyl)-4-oxo-3,4-dihydroquinazolin-7-yl)-2-hydroxyacetamide], the pIC50 was 7.07.

Consider `Cc1ccccc1OCCCn1cnc2ccc(NC(=O)OCc3ccccc3)cc2c1=O` [compound 52, benzyl 4-oxo-3-(3-(o-tolyloxy)propyl)-3,4-dihydroquinazolin-6-ylcarbamate], for which the pIC50 was 7.36.

As a reminder, the pIC50 is the negative decadic logarithm of the IC50, by convention in mol/L. Read a low pIC50 as a high IC50.
